# Reference: publication PMC11901381 (Future Medicinal Chemistry, 2025)
# Where two headings read alike, the source gives them in different places.
# Experiments:
# [1] = test system: L. major strain NIH S promastigotes; assay: Antipromastigote resazurin assay; assay type: cell-based, Leishmania major; settings: for AG (activity gain): IC50 (1)/IC50 (compd.), L. major promastigotes; for SI4: SI4 = IC50 Vero/IC50 promastigote, L. major; for IC50: Leishmania major, read-out: Antipromastigote activity IC50
# [2] = Host cell toxicity, resazurin assay; assay type: cell-based; settings: human
# [3] = test system: T. brucei gambiense strain IL1922; assay: Antitrypanosomal assay; assay type: cell-based, Trypanosoma brucei gambiense; settings: IC50 of MDBK/IC50 of trypanosome
# General = assay type: cell-based; settings: African green monkey, Vero cells (monkey kidney epithelial cells)
# [4] = test system: L. major strain NIH S intramacrophage amastigotes; assay: Intramacrophage antileishmanial resazurin assay; assay type: cell-based, Leishmania major; settings: L. major; for SI5: SI5 = IC50 Vero/static IC50 amastigote; for SI6: SI6 = IC50 Vero/cidal IC50 amastigote; for SpI3: SpI3 = IC50 promastigote/static IC50 amastigote; for SpI4: SpI4 = IC50 promastigote/cidal IC50 amastigote
# Trypanosoma spp. = assay: Antitrypanosomal assay, several species; assay type: cell-based; settings: read-out: IC50 against several Trypanosoma spp.
# [5] = Animal cytotoxicity, CCK-8 assay; assay type: cell-based, bovine; settings: bovine, MDBK (Madin-Darby bovine kidney) cells
# [6] = test system: T. brucei brucei strain GUTat3.1; assay: Antitrypanosomal assay; assay type: cell-based, Trypanosoma brucei brucei; settings: for SI Tbb GuTat3.1: IC50 of MDBK/IC50 of trypanosome; for IC50: read-out: Antitrypomastigote activity IC50 ± SD Tbb GuTat3.1
# [7] = test system: T. brucei rhodesiense strain IL1501; assay: Antitrypanosomal assay; assay type: cell-based, Trypanosoma brucei rhodesiense; settings: IC50 of MDBK/IC50 of trypanosome
# [8] = test system: L. donovani strain 9515 promastigotes; assay: Antipromastigote resazurin assay; assay type: cell-based, Leishmania donovani; settings: for AG (activity gain): IC50 (1)/IC50 (compd.), L. donovani promastigotes; for SI1: SI1 = IC50 Vero/IC50 promastigote, L. donovani; for IC50: Leishmania donovani, read-out: Antipromastigote activity IC50
# [9] = Solubility observed during sample preparation and screening; assay type: physicochemical; settings: aqueous screening medium
# [10] = test system: T. congolense strain IL3000; assay: Antitrypanosomal assay; assay type: cell-based, Trypanosoma congolense; settings: IC50 of MDBK/IC50 of trypanosome
# [11] = test system: T. equiperdum strain IVM-t1; assay: Antitrypanosomal assay; assay type: cell-based, Trypanosoma equiperdum; settings: for SI Teq IVM-t1: IC50 of MDBK/IC50 of trypanosome
# MDBK cells = assay: Animal cytotoxicity, CCK-8 assay; assay type: cell-based, bovine; settings: read-out: Cytotoxicity IC50 ± SD MDBK; MDBK cells; three biological replicates
smiles,measurement,setting,value
"O=Cc1cn(Cc2ccc(F)cc2)c2ccc([N+](=O)[O-])cc12 [2e, 1-(4-Fluorobenzyl)-5-nitro-1 H-indole-3-carbaldehyde]",AG (activity gain),[1],0.5
same,SI4,[1],1
same,IC50,[2],> 100 µM
same,SI Tbg IL1922,[3],15
same,IC50,General,> 100 µM
same,SI5,[4],8
same,SI6,[4],8
same,SpI3,[4],7
same,SpI4,[4],8
same,IC50,Trypanosoma spp.,20 to 40 µM
same,IC50,[5],> 335 µM
same,SI Tbb GuTat3.1,[6],22
same,IC50,[6]; Trypanosoma brucei,15 ± 8.48 µM
same,SI Tbr IL1501,[7],4
same,AG (activity gain),[8],0.5
same,SI1,[8],1
"O=C1NC(=S)S/C1=C\c1c[nH]c2ccc([N+](=O)[O-])cc12 [3a, (Z)-5-[(5-Nitro-1 H-indol-3-yl)methylene]-2-thioxothiazolidin-4-one]",IC50,[1],> 100 µM
same,IC50,[2],> 100 µM
same,SI Tbg IL1922,[3],1
same,IC50,General,15.2 ± 0.32 µM
same,SI5,[4],25
same,SI6,[4],27
same,SpI3,[4],166
same,SpI4,[4],175
same,Solubility in aqueous screening medium,[9],poor solubility
same,SI Tc IL3000,[10],1
same,SI Teq IVM-t1,[11],1
same,IC50,[5],31.6 ± 1.67 µM
same,SI Tbb GuTat3.1,[6],1
same,IC50,[6]; Trypanosoma brucei,33.7 ± 5.01 µM
same,SI Tbr IL1501,[7],0
same,IC50,[8],> 100 µM
"C#CCn1cc(/C=C2\SC(=S)NC2=O)c2cc([N+](=O)[O-])ccc21 [3b, (Z)-5-{[5-Nitro-1-(prop-2-yn-1-yl)-1 H-indol-3-yl]methylene}-2-thioxothiazolidin-4-one]",AG (activity gain),[1],0.9
same,IC50,[1],56.8 ± 5.57 µM
same,SI4,[1],0.2
same,IC50,General,13.5 ± 0.8 µM
same,Solubility in aqueous screening medium,[9],poor solubility
same,IC50,Trypanosoma spp.,20 to 40 µM
same,IC50,[5],> 312 µM
same,IC50,[6]; Trypanosoma brucei,> 78 µM
same,SI Tbr IL1501,[7],4
same,AG (activity gain),[8],0.7
same,IC50,[8],68.7 ± 6.55 µM
same,SI1,[8],0.2
"CC(=O)NCC(=O)O.CC(=O)NCC(=O)O.N=C(N)c1ccc(N=NNc2ccc(C(=N)N)cc2)cc1 [Diminazine aceturate, diminazene aceturate, reference compound]",SI Tbg IL1922,[3],33333
same,SI Tc IL3000,[10],4000
same,SI Teq IVM-t1,[11],16340
same,IC50,"[11]; read-out: Antitrypomastigote activity IC50 ± SD Teq IVM-t1, three biological replicates",0.022 ± 0.002 µM
same,IC50,MDBK cells,> 355 µM
same,SI Tbb GuTat3.1,[6],5263
same,IC50,[6]; three biological replicates,0.068 µM
same,SI Tbr IL1501,[7],9091
